Results taken from PubChem BioAssay (NCI).
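Briefly, cells in 96-well plates were exposed to five compound concentrations for 48 h, and endpoints were estimated by linear interpolation. The concentration for 50% growth inhibition is given as GI50. TGI denotes the concentration required for complete inhibition of growth.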

Assays:
Test in all cases: DTP human tumour cell line panel, 48 h
UO-31 renal = tested on: UO-31 renal
SF-295 CNS = tested on: SF-295 CNS
SF-539 CNS = tested on: SF-539 CNS
BT-549 breast = tested on: BT-549 breast
SN12C renal = tested on: SN12C renal
RXF 393 renal = tested on: RXF 393 renal
SK-MEL-2 melanoma = tested on: SK-MEL-2 melanoma
NCI-H23 lung = tested on: NCI-H23 lung
NCI-H460 lung = tested on: NCI-H460 lung
SK-MEL-28 melanoma = tested on: SK-MEL-28 melanoma

Structure (SMILES)	GI50 (UO-31 renal) [µM]	TGI (UO-31 renal) [µM]	GI50 (SF-295 CNS) [µM]	TGI (SF-295 CNS) [µM]	GI50 (SF-539 CNS) [µM]	TGI (SF-539 CNS) [µM]	GI50 (BT-549 breast) [µM]	TGI (BT-549 breast) [µM]	GI50 (SN12C renal) [µM]	TGI (SN12C renal) [µM]	GI50 (RXF 393 renal) [µM]	TGI (RXF 393 renal) [µM]	GI50 (SK-MEL-2 melanoma) [µM]	TGI (SK-MEL-2 melanoma) [µM]	GI50 (NCI-H23 lung) [µM]	TGI (NCI-H23 lung) [µM]	GI50 (NCI-H460 lung) [µM]	TGI (NCI-H460 lung) [µM]	GI50 (SK-MEL-28 melanoma) [µM]	TGI (SK-MEL-28 melanoma) [µM]
COC1C(CO)OC(n2c3ccccc3c3c4c(c5c6ccccc6[nH]c5c32)C(=O)NC4=O)C(O)C1O (centres undefined)	0.173	0.676	0.129	0.673	< 0.01	0.0359	0.12	1.85	< 0.0187	0.111	0.114	0.877	0.234	0.856	0.0951	1.12	0.848	6.61	0.156	8.49
COC(=O)[C@@H](C)C[C@H](Cc1cn(C)c2ccccc12)NC(=O)c1csc([C@@H](C[C@H](C(C)C)N(C)C(=O)[C@@H](NC(=O)[C@H]2CCCCN2C)C(C)C)OC(C)=O)n1	0.169	> 16.7	0.024	> 16.7	0.0173	0.116	< 0.0113	0.49	0.0232	> 16.7	0.023	> 16.7	0.0115	> 16.7	0.0718	> 16.7	0.0101	> 6.11	> 4.36	> 16.7
CCOC(=O)c1ccccc1OC(=O)NNc1ccccc1	0.535	> 100	0.333	> 37.4	0.312	1.33	3.56	> 100	34.9	> 100	> 100	> 100		> 29.3	30.3	> 100	0.442	> 100	> 59.6	> 100
CCN(CC)CCNc1ccc(C)c2sc3cc(Cl)ccc3c(=O)c12	1.32	2.69	1.67	3.16	1.6	3	2.36	6.95	1.68	3.44	1.57	3.05	1.88	3.72	1.7	3.47	1.87	3.54	1.91	3.52
N#Cc1c(NC(=O)NCc2ccccc2)sc2c1CCCC2	0.74	> 100	0.549	37.7	0.37	4.68	1.25	> 100	0.813	> 100	0.481	14.1	5.08	> 100	1.18	> 26.3	0.407	> 100	6.37	> 100
O=C1C(Cl)=C(Sc2nnc3c4ccccc4c4ccccc4c3n2)C(=O)c2ccccc21		28.4		23.3		32.4		32.2		33.1		32		34.8		19.4		37		39.6
COc1cccc(CCC2CCCN(c3cc(C)nc(N)n3)C2)c1 (centres undefined)	0.576	11.9	0.362	10.6	0.277	1.15	0.69	13.5	0.635	11.5	0.368	5.87	0.435	8.23	0.614	14	0.38	11.6	1.12	16
O=C(c1ccco1)c1nc2cc(C(F)(F)F)ccc2nc1C(F)(F)F	> 100	> 100	> 100	> 100	> 100	> 100	> 100	> 100	> 100	> 100	> 100	> 100	> 100	> 100	> 100	> 100	> 100	> 100	> 100	> 100
Nc1c(C(=O)c2ccc(-c3cccnc3)cc2)cnn1-c1ccc(F)cc1	> 12.8	> 22	> 25	> 25	> 16.7	> 25	> 25	> 25	> 19.5	> 25	14.5	> 25	> 25	> 25	> 22.7	> 25	> 14.2	> 25	> 17.4	> 25
O=C1CC[C@H](N2C(=O)c3cccc4c(Cc5ccc(CN6CCOCC6)cc5)ccc2c34)C(=O)N1	48.7	> 100	19.3	> 100	> 100	> 100	17.3	> 100	63.4	> 100	2.45	> 100	> 100	> 100	29.4	> 100	35.2	> 100	75.1	> 100
CCOC(=O)C1=C(C)N=c2s/c(=C\c3ccccc3O)c(=O)n2C1c1ccc(OC)c2ccccc12 (centres undefined)	15.6	33.1	13.3	30	1.76	3.67	14.6	> 100	17.6	63.6	4.3	17.3	32.3	87.1	7.72	30.7	8.92	39.5	15.5	76.4
Nc1nc2c(ncn2C2CCC(CO)O2)c(=O)n1C(=O)c1ccccc1 (centres undefined)		> 100		> 100		> 100		> 100		> 100		> 100		> 100		> 100		> 100		> 100
Nc1ccccc1NC(=O)c1ccc(CNc2nccc(-c3cccnc3)n2)cc1	0.978	> 77.2	0.722	> 100	0.805	13.1	1.9	14.8	2.34	> 72.8	0.878	3.01	0.481	3.71	1.4	> 68.1	1.15	97	0.691	3.15
Cc1cc(Cl)cc2c(N=Nc3ccc(S(N)(=O)=O)cc3)c(O)[nH]c12	> 25	> 25	> 25	> 25	> 25	> 25	> 25	> 25	> 25	> 25	> 14.5	> 25	> 25	> 25	> 25	> 25	> 25	> 25	> 25	> 25
CC1(C)N=C(N)N=C(N)N1c1ccc(CCCCc2ccccc2)c(Cl)c1	4.89	25.6	0.0457	14.6	0.121	5.14	0.161	5.19	0.0521	7.02	0.334	7.79	0.0394	12.4	0.0543	10.2	< 0.0129	4.04	0.53	13.4
CSc1ccc(-c2ccccc(=O)c2O)cc1	0.351	5.2	0.437	18.3	0.394	11.6	0.873	35.2	0.878	30.3	0.976	16.2	0.966	31.4	0.688	28.3	0.371	10.8	0.663	32.9
